Our source for the Emax and EC50 values is US9416141B2 (University of Washington through its Center for …, priority 2012, dated 2016).

Each structure is given as a SMILES string. pEC50: −log10 of the molar value. Structures can show the parent of a compound that is named as a salt. Some results are limits rather than exact numbers.

The subject of this test is hair cells. Nature of the test: Hair cell toxicity assay in zebrafish (neomycin-induced hair cell death, DASPEI staining of neuromasts). It is filed as in vivo. To be noted: Danio rerio; for Emax at 2.8 µM: maximum observed @ 2.8 μM test compound; for pEC50: zebrafish larvae 5-7 dpf, 1 h pre-treatment, then 200 micromolar neomycin + test compound 30 min, read-out: HC50 (concentration that would produce 50% hair cell survival); for Emax at 8.3 µM: maximum observed @ 8.3 μM test compound; for Emax at 25 µM: maximum observed @ 25 μM test compound. The procedure: Zebrafish are bred and newly fertilized embryos are collected the week prior and raised at 28.5° C. in petri dishes containing embryo medium. Newly hatched free-swimming larvae are fed paramecium and dry fish food at 4 days post fertilization (dpf) with lights on. For treatment, fish 5-7 dpf are transferred to cell culture baskets and place within a well of a 6-well plate containing 7 milliliters of 1× embryo medium. Typically, tests are done with ten fish per basket but work well with up to 50 fish. All treatment and wash volumes are 7 milliliters. • 1. Fish are pre-treated with test compound for 1 hour. […] Treat with 200 micromolar neomycin (neomycin sulfate, Sigma, St. Louis, Mo., catalog #N1142)+test compound for 30 minutes. • 3. Rinse fish briefly 4 times in embryo medium and add 700 μl of 0.05% DASPEI (2-{4-(dimethylamino)styryl}-N-ethylpyridinium iodide, Molecular Probes, Eugene, Oreg.) and allowed to stain for 15 minutes. • 4. Rinse twice in embryo medium and add 350 μl MS222 (0.55 ug/ml final concentration, 3-aminobenzoic acid ethyl ester, methansulfoneate salt, Sigma, St. Louis, Mo.) to anesthetize. • 5. View with epifluorescence dissecting microscope equipped with a DAPSEI filter set (excitation […], Chroma Technologies, Brattleboro, Vt.). For assessment of initial dose response curves, fish are transferred to wide depression slide with wide-bore pipette. The DASPEI staining of ten neuromasts (SO1, SO2, IO1, IO2, IO3, IO4, M2, MI1, MI2 and O2) on one side of an animal are evaluated. Each neuromast is scored for presence of DASPEI staining (score=2), reduced DASPEI staining (score=1) or absence of DASPEI staining (score=0). Total scores for an animal are tabulated, to give a composite score that can range from 0 to 20. Average scores and standard deviations are calculated for animals in each treatment group. Scores are normalized to control group (vehicle only, no drug, no neomycin) and expressed as % hair cell survival. HCmax is the maximum protection (hair cell survival) observed. • 6. If at least 50% hair cells survive, the HC50 (concentration that would produce 50% hair cell survival) is calculated as a linear extrapolation from the nearest concentrations of protective drug that produce hair cell survival below and above 50%. If less than 50% hair cells survive, the HC50 is not determined. 1× embryo media (standard lab EM): • 1 mM MgSO4, • 0.15 mM KH2PO4, • 0.05 mM Na2HPO4, • 1 mM CaCl2, • 0.5 mM KCl • 15 mM NaCl • 0.7 mM NaHCO3

The mark [1] stands for this setting: 200 micromolar neomycin, read-out: Max HC Protection (HCmax, % hair cell survival).

As for `CC(C)(C)OC(=O)CCCCC[N+]1(C)CCc2c(sc(NC(=O)Nc3ccc(Cl)cc3)c2C(N)=O)C1` (stereo not drawn) [Example 156, 6-(6-tert-Butoxy-6-oxohexyl)-3-carbamoyl-2-[3-(4-chlorophenyl)ureido]-6-methyl-4,5,6,7-tetrahydrothieno[2,3-c]pyridin-6-ium iodide], the pEC50 is above 6.00. Moreover, the Emax at 2.8 µM under setting [1] was 96%.

With `CCN1CCc2c(sc(NC(=O)Nc3ccc(C#N)cc3)c2C(N)=O)C1` [Example 67, 2-[3-(4-Cyanophenyl)ureido]-6-ethyl-4,5,6,7-tetrahydrothieno[2,3-c]pyridine-3-carboxamide hydrochloride], the Emax at 8.3 µM under setting [1] is 20%.

For `CCN1CCc2c(sc(NC(=O)Nc3ccc(Cl)cc3)c2C(=O)NCCN2CCOCC2)C1` [Example 100, 2-[3-(4-Chlorophenyl)ureido]-6-ethyl-N-(2-morpholinoethyl)-4,5,6,7-tetrahydrothieno[2,3-c]pyridine-3-carboxamide dihydrochloride], the pEC50 is 5.00 to 6.00. Further, under setting [1], the Emax at 25 µM amounted to 59%.

As to `CCOC(=O)CCCN1CCc2c(sc(NC(=O)Nc3ccc(Cl)cc3)c2C(N)=O)C1` [Example 21, Ethyl 4-{3-carbamoyl-2-[3-(4-chlorophenyl)ureido]-4,5-dihydrothieno[2,3-c]pyridin-6(7H)-yl}butanoate hydrochloride], the pEC50 was 5.00 to 6.00. Under setting [1], the Emax at 2.8 µM was found to be 57%.

As to `CCN1CCc2c(sc(NC(=O)Nc3cccc4c3ccn4C)c2C(N)=O)C1` [Example 84, 6-Ethyl-2-[3-(1-methyl-1H-indol-4-yl)ureido]-4,5,6,7-tetrahydrothieno[2,3-c]pyridine-3-carboxamide hydrochloride], under setting [1], the Emax at 25 µM came out at 4%.

As for `NC(=O)c1c(NC(=O)Nc2ccc(Cl)cc2)sc2c1CCN(CC(F)(F)F)C2` [Example 89, 2-[3-(4-Chlorophenyl)ureido]-6-(2,2,2-trifluoroethyl)-4,5,6,7-tetrahydrothieno[2,3-c]pyridine-3-carboxamide], under setting [1], the Emax at 8.3 µM was 18%.

Turning to `CC1(C)Cc2c(sc(NC(=O)Nc3ccc(Cl)cc3)c2C(N)=O)C(C)(C)N1` [Example 90, 2-[3-(4-Chlorophenyl)ureido]-5,5,7,7-tetramethyl-4,5,6,7-tetrahydrothieno[2,3-c]pyridine-3-carboxamide hydrochloride], the pEC50 was 5.00 to 6.00. Also, the Emax at 8.3 µM under setting [1] was 99%.

Turning to `CCCC[N+]1(C)CCc2c(sc(NC(=O)Nc3ccc(Cl)cc3)c2C(N)=O)C1` (stereo not drawn) [Example 219, 6-butyl-3-carbamoyl-2-{[(4-chlorophenyl)carbamoyl]amino}-6-methyl-4H,5H,6H,7H-thieno[2,3-c]pyridin-6-ium], the pEC50 was above 6.00. In addition, the Emax at 25 µM under setting [1] turned out to be 92%.

With `CC12CCC(C)(N1)c1sc(NC(=O)Nc3ccc(Cl)cc3)c(C(N)=O)c1C2` (racemic) [Example 123, (+/−)-2-[3-(4-Chlorophenyl)ureido]-5,8-dimethyl-5,6,7,8-tetrahydro-4H-5,8-epiminocyclohepta[b]thiophene-3-carboxamide trifluoroacetate], the pEC50 is above 6.00. Besides, the Emax at 2.8 µM under setting [1] came out at 60%.

As to `CC(C)(C)OC(=O)C[N+]1(C)CCc2c(sc(NC(=O)Nc3ccc(Cl)cc3)c2C(N)=O)C1` (stereo not drawn) [Example 147, 6-(2-tert-Butoxy-2-oxoethyl)-3-carbamoyl-2-[3-(4-chlorophenyl)ureido]-6-methyl-4,5,6,7-tetrahydrothieno[2,3-c]pyridin-6-ium iodide], the pEC50 is above 6.00. In addition, the Emax at 2.8 µM under setting [1] is 90%.

As for `NC(=O)c1c(NC(=O)Nc2ccc(Cl)cc2)sc2c1CCC(=O)C2` [Example 91, 2-[3-(4-Chlorophenyl)ureido]-6-oxo-4,5,6,7-tetrahydrobenzo[b]thiophene-3-carboxamide], the Emax at 0.9 µM (maximum observed @ 0.9 μM test compound, 200 micromolar neomycin, read-out: Max HC Protection (HCmax, % hair cell survival)) stood at 15%.
